# Assays:
# [1] = system: rat fetal urogenital sinus-derived tissues implanted beneath the prostatic capsules; test: Inhibition of weight increase of rat fetal urogenital sinus-derived tissue implanted beneath the prostatic capsule of rats (prostatic stromal hyperplasia model); type: in vivo, male SD rats
# From the text: Under ether anesthesia, fetuses were removed from female SD rats that were 20 days pregnant. From the removed fetuses, the urogenital sinuses were removed under ether anesthesia while observing through a stereoscopic microscope. The urogenital sinuses were stored in a sterilized culture medium until implantation. The prostate glands were exposed by midline incision using 6-week old male SD rats under ether anesthesia. The capsule of prostate right ventral lobe was slightly cut open while observing through a stereoscopic microscope. Two of the fetal urogenital sinuses obtained in (1) above were implanted using a forceps beneath the capsule, and the incision in the capsule was sutured. The cut abdominal skin then closed and the rats were reared for 2 to 8 weeks in normal rearing cages (Rat Bracket Cages, 3 to 4 rats/cage) under the following conditions: • Temperature: 20 to 26° C. • Humidity: 30 to 70% • Lighting hours: 12-hour light-dark cycle; light-on at 8 am and light-out at 8 pm • Feed and feeding method: solid feed for mouse, MF (irradiated), ad libitum • Water and watering method: tap water, ad libitum (3) Weighing of Implanted Tissue (Rat Fetal Urogenital Sinus-derived Tissue) Animal models for prostatic stromal hyperplasia of the present invention were prepared according to the methods described in Examples 2 (1) and (2) by implanting the urogenital sinuses of rat fetuses (20 days of intrauterine life) beneath the capsules of prostate ventral lobes of 6-week-old male SD rats. […] The rate inhibition to weight increase of the rat fetal urogenital sinus-derived tissues implanted beneath the prostatic capsules was calculated according to the formula shown in Equation 1 above, and the effects of the therapeutic agent on benign prostatic hyperplasia (chlormadinone acetate) were then evaluated. • Experiment (2): Animal models for prostatic stromal hyperplasia prepared as above were reared under the conditions described in Example 2 (2) for 3 weeks (until day 21) from the implantation day (day 0). […]
# [2] = system: subcutaneously-implanted, rat fetal urogenital sinus-derived tissues; test: Inhibition of weight increase of rat fetal urogenital sinus-derived tissue implanted subcutaneously in nude mice (prostatic stromal hyperplasia model); type: in vivo, male nude mice (BALB/cA Jcl-nu); settings: for Rate of inhibition (%) to weight increase of implanted tissue: tissue weighed day 14, vs solvent group
# From the text: Under ether anesthesia, fetuses were removed from female SD rats that were 21 days pregnant. From the removed male fetuses, urogenital sinuses were removed also under ether anesthesia while observing through a stereoscopic microscope. The urogenital sinuses were stored in a sterilized culture medium until implantation. The abdominal skin adjacent the left femoral region of 6-week old BALB/c male nude mice was cut open about 2 to 3 mm under ether anesthesia. A single rat fetal urogenital sinus obtained in (1) above was subcutaneously implanted after incision using a forceps and the incision was sutured. Thereafter, these nude mice were reared in clean racks (Rat Bracket Cages, 3 to 4 mice/cage) for 2 weeks under the following conditions: • Temperature: 20 to 26° C. • Humidity: 30 to 70% • Lighting hours: 12-hour light-dark cycle; light-on at 8 am and light-out at 8 pm • Feed and feeding method: solid feed for mouse, MF (irradiated), ad libitum • Water and watering method: tap water, ad libitum (3) Weighing of Implanted Tissue (Rat Fetal Urogenital Sinus-derived Tissue) Animal models for prostatic stromal hyperplasia of the invention were prepared according to the methods described in Example 1 (1) and (2) by implanting the urogenital sinuses of rat fetuses (21 day-old) beneath the abdominal skin of 6-week-old male nude mice (BALB/cA Jcl-nu). For 2 weeks from the implantation day (day 0), a known therapeutic agent for benign prostatic hyperplasia, i.e., chlormadinone acetate (anti-androgen agent: 6-chloro-3,20-dioxopregna-4,6-dien-17,alpha-yl acetate; suspended or dissolved in 0.5% hydroxypropylmethyl cellulose (0.5% HPMC) solvent) was forcedly administered orally once a day (3 test substance-administered groups: 30 mg/kg·day, 100 mg/kg·day, 300 mg/kg·day; n=10 mice/group). Two weeks after the beginning of administration (day 14), the model animals were sacrificed by over anesthesia, and the implanted tissues (rat fetal urogenital sinus-derived tissues) were removed and weighed (weights from the test substance-administered groups). As a control experiment, for 2 weeks after implantation, model animals (solvent-administered group: n=10 mice) were forcedly administered with a solvent (0.5% HPMC), no chlormadinone acetate dissolved therein, once a day orally. […] The inhibition rate to weight increase of the subcutaneously-implanted, rat fetal urogenital sinus-derived tissues was calculated according to the formula shown in Equation 1, with respect to each chlormadinone acetate-administered group, and the effects of the therapeutic agent for benign prostatic hyperplasia (chlormadinone acetate) upon these tissues were then evaluated. […]
compound,measurement,setting,value
"CC(=O)O[C@]1(C(C)=O)CC[C@H]2[C@@H]3C=C(Cl)C4=CC(=O)CC[C@]4(C)[C@H]3CC[C@@]21C [chlormadinone acetate, 6-chloro-3,20-dioxopregna-4,6-dien-17,alpha-yl acetate]",Rate of inhibition (%) to weight increase of implanted tissue,"[1]; Experiment (1): 10 mg/kg·day orally for 3 weeks from implantation date, tissue weighed day 21",30.7%
same,Rate of inhibition (%) to weight increase of implanted tissue,"[1]; Experiment (2): 10 mg/kg·day orally for 3 weeks from 3 weeks after implantation (day 21 to day 42), tissue weighed day 42",67.0%
same,Effect on tissue weight increase (in words),"[1]; Experiments (1) and (2), 10 mg/kg·day oral, implant beneath prostatic capsule of rats",significantly inhibits the tissue weight increase
same,Rate of inhibition (%) to weight increase of implanted tissue,[2]; 30 mg/kg·day orally once a day for 2 weeks from implantation day,21.8%
same,Rate of inhibition (%) to weight increase of implanted tissue,[2]; 100 mg/kg·day orally once a day for 2 weeks from implantation day,39.5%
same,Rate of inhibition (%) to weight increase of implanted tissue,[2]; 300 mg/kg·day orally once a day for 2 weeks from implantation day,38.8%
same,Effect on tissue weight increase (in words),"[2]; oral, 2 weeks of rearing after implantation, subcutaneous implant in nude mice",significantly inhibits the tissues weight increase
